# Test results: article PMC10030390, “A phase 1 open-label study to assess the relative bioavailability of TAK-931 tablets in reference to powder-in-capsule in patients with advanced solid tumors” (Investigational New Drugs, 2022)
# Values joined by “and” are separate entries in the source; they are usually repeats but may differ in a detail not shown here. Identical values can stand only once. Like-named read-outs stand apart in the source and are kept apart here.
# Legend:
# [1] = set-up: method as in NCT02699749; details: estimated from preliminary data, ref NCT02699749; cited from earlier work
# solid tumors = tested on: solid tumors; set-up: method as in earlier work; details: of 24 response-evaluable patients, first-in-human phase 1 study; cited from earlier work
# [2] = tested on: locally advanced or metastatic solid tumors; assay: Antitumor activity, investigator-assessed disease response (RECIST v1.1); format: in vivo, human
# Method: The primary endpoints were the ratio of geometric means of the following PK parameters for TAK-931 tablets in reference to PIC and associated 2-sided 90% confidence intervals (CIs): maximum observed plasma concentration (Cmax), area under the plasma concentration–time curve (AUC) from time 0 to time of the last quantifiable concentration (AUClast), and the AUC from time 0 to infinity (AUCinf). Secondary endpoints were PK parameters of TAK-931 80 mg following a single-dose administration as PIC or tablet (time of first occurrence of maximum observed plasma concentration [Tmax], and terminal disposition phase half-life [T1/2z]), antitumor activity, and safety.
smiles,measurement,setting,value
Cc1[nH]ncc1-c1cc2nc([C@@H]3CC4CCN3CC4)[nH]c(=O)c2s1 [TAK-931],within-patient coefficient of variation for AUC,[1],35.0%
same,within-patient coefficient of variation for Cmax,[1],36.9%
same,patients with a partial response,solid tumors,3
same,patients with prolonged SD,solid tumors,4
same,On-study deaths,"PIC/Tablet sequence, n = 12",0 n (%)
same,On-study deaths,"Tablet/PIC sequence, n = 8",1 (13) n (%)
same,Dose modification: Dose increased,"human, in vivo",0 n (%)
same,Serious TEAEs: Not related,"human, in vivo",2 (25) n (%) and 2 (17) n (%) and 4 (20) n (%)
same,"TEAE Alopecia, Any-grade","human, in vivo",6 (30) n (%)
same,"TEAE Constipation, Any-grade","human, in vivo",8 (40) n (%)
same,"TEAE Decreased appetite, Any-grade","human, in vivo",4 (20) n (%)
same,"TEAE Disturbance in attention, Any-grade","human, in vivo",2 (10) n (%)
same,"TEAE Dyspnea, Any-grade","human, in vivo",3 (15) n (%)
same,"TEAE Dyspnea, Grade ≥ 3","human, in vivo",1 (5) n (%)
same,"TEAE Fatigue, Any-grade","human, in vivo",13 (65) n (%)
same,"TEAE Fatigue, Grade ≥ 3","human, in vivo",1 (5) n (%)
same,"TEAE Headache, Any-grade","human, in vivo",3 (15) n (%)
same,"TEAE Hypertension, Any-grade","human, in vivo",3 (15) n (%)
same,"TEAE Hypertension, Grade ≥ 3","human, in vivo",1 (5) n (%)
same,"TEAE Hypokalemia, Any-grade","human, in vivo",1 (5) n (%)
same,"TEAE Hypokalemia, Grade ≥ 3","human, in vivo",1 (5) n (%)
same,"TEAE Ileus, Any-grade","human, in vivo",2 (10) n (%)
same,"TEAE Ileus, Grade ≥ 3","human, in vivo",2 (10) n (%)
same,"TEAE Nausea, Any-grade","human, in vivo",8 (40) n (%)
same,"TEAE Neutropenia, Any-grade","human, in vivo",2 (10) n (%)
same,"TEAE Neutropenia, Grade ≥ 3","human, in vivo",2 (10) n (%)
same,"TEAE Pneumonia, Any-grade","human, in vivo",1 (5) n (%)
same,"TEAE Pneumonia, Grade ≥ 3","human, in vivo",1 (5) n (%)
same,"TEAE Rectal cancer, Any-grade","human, in vivo",1 (5) n (%)
same,"TEAE Rectal cancer, Grade ≥ 3","human, in vivo",1 (5) n (%)
same,"TEAE Vomiting, Any-grade","human, in vivo",6 (30) n (%)
same,"TEAE Weight decrease, Any-grade","human, in vivo",3 (15) n (%)
same,patients with TEAE alopecia,"human, in vivo",30%
same,patients with TEAE constipation,"human, in vivo",40%
same,patients with TEAE fatigue,"human, in vivo",65%
same,patients with TEAE nausea,"human, in vivo",40%
same,patients with TEAE vomiting,"human, in vivo",30%
same,patients with grade ≥ 3 TEAE ileus,"human, in vivo",10%
same,patients with grade ≥ 3 TEAE neutropenia,"human, in vivo",10%
same,patients with treatment-related TEAE alopecia,"human, in vivo",30%
same,patients with treatment-related TEAE decreased appetite,"human, in vivo",20%
same,patients with treatment-related TEAE fatigue,"human, in vivo",50%
same,patients with treatment-related TEAE nausea,"human, in vivo",30%
same,patients with treatment-related TEAE vomiting,"human, in vivo",20%
same,partial or complete responses,[2]; 19 patients evaluable for response,No partial or complete responses
same,Median time to PD or death,[2]; 95% CI: 1.6–2.8,1.9 months
same,individual progression-free survival durations of patients with SD,"[2]; four patients with best response SD, + = censored observation",3.58 months and ≥ 2.23 months and 3.55 months and 4.01 months
